Patent publication US12304890B2, “R-type pyridyloxycarboxylic acid, salt and ester derivative thereof, and preparation method therefor, and herbicidal composition and application thereof” (Qingdao Kingagroot Chemical Compound Co., Ltd., priority 2018, dated 2025)

Assays:
Type in all cases: in vivo
[1] = tested on: Monocotyledonous and dicotyledonous weed seeds and main crop seeds; experiment: Post-emergence test experiment, other weeds and crops (Table 4, 1000 g a.i./ha); settings: 3 weeks in greenhouse, fresh weight inhibition
Outline: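 Growth inhibition is scored on fresh weight. Spray solutions were made in acetone with tween-80, diluted in water, plus 1.5 L/ha methyl oleate emulsible concentrate. Plants from greenhouse-grown weed and crop seeds were treated post-emergence at 2-3 leaves, 2 weeks after sowing.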

Echinochloa crusgalli = experiment: Post-emergence test experiment, Echinochloa crusgalli; settings: 1000 g a.i./ha, 3 weeks in greenhouse, fresh weight inhibition
Outline: (§1)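 Growth inhibition is given as reduction in fresh weight, assessed 3 weeks post-treatment in the greenhouse. Spray solutions (acetone, tween-80, water, with 1.5 L/ha methyl oleate concentrate synergist) were applied to weeds and crops at 2-3 leaves, 2 weeks from sowing.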

Digitaria sanguinalis = experiment: Post-emergence test experiment, Digitaria sanguinalis; settings: 1000 g a.i./ha, 3 weeks in greenhouse, fresh weight inhibition
Outline: as §1

Compound	Activity level (growth inhibition rate), Abutilon theophrasti Medic. [1]	Activity level (growth inhibition rate), Galium aparine [1]	Activity level (growth inhibition rate), Monochoria Vaginalis [1]	Activity level (growth inhibition rate), Echinochloa crusgalli (Echinochloa crusgalli)	Activity level (growth inhibition rate), Digitaria sanguinalis (Digitaria sanguinalis)
CC(Oc1nc(F)c(Cl)c(N)c1Cl)C(=O)OCc1ccccc1Br (stereo not drawn) [Compound 2-320]	5 (Level 5: the growth inhibition rate is greater than 85%)	5 (Level 5: the growth inhibition rate is greater than 85%)	5 (Level 5: the growth inhibition rate is greater than 85%)	5 (Level 5: the growth inhibition rate is greater than 85%)	5 (Level 5: the growth inhibition rate is greater than 85%)
CCCCCCSC(=O)[C@@H](C)Oc1nc(F)c(Cl)c(N)c1Cl [Compound 2-102]	5 (Level 5: the growth inhibition rate is greater than 85%)	5 (Level 5: the growth inhibition rate is greater than 85%)	5 (Level 5: the growth inhibition rate is greater than 85%)	5 (Level 5: the growth inhibition rate is greater than 85%)	5 (Level 5: the growth inhibition rate is greater than 85%)
C[C@@H](Oc1nc(F)c(Cl)c(N)c1Cl)C(=O)OCc1ccccn1 [Compound 2-342]	5 (Level 5: the growth inhibition rate is greater than 85%)	5 (Level 5: the growth inhibition rate is greater than 85%)	5 (Level 5: the growth inhibition rate is greater than 85%)	5 (Level 5: the growth inhibition rate is greater than 85%)	5 (Level 5: the growth inhibition rate is greater than 85%)
CCC(C)COC(=O)[C@@H](C)Oc1nc(F)c(Cl)c(N)c1Cl (stereo partly drawn) [Compound 2-87]	5 (Level 5: the growth inhibition rate is greater than 85%)	5 (Level 5: the growth inhibition rate is greater than 85%)	5 (Level 5: the growth inhibition rate is greater than 85%)	5 (Level 5: the growth inhibition rate is greater than 85%)	5 (Level 5: the growth inhibition rate is greater than 85%)
CC(Oc1nc(F)c(Cl)c(N)c1Cl)C(=O)OCc1ccc(C(F)(F)F)cc1 (stereo not drawn) [Compound 2-331]	5 (Level 5: the growth inhibition rate is greater than 85%)	5 (Level 5: the growth inhibition rate is greater than 85%)	5 (Level 5: the growth inhibition rate is greater than 85%)	5 (Level 5: the growth inhibition rate is greater than 85%)	5 (Level 5: the growth inhibition rate is greater than 85%)
COCCCSC(=O)C(C)Oc1nc(F)c(Cl)c(N)c1Cl (stereo not drawn) [Compound 2-272]	5 (Level 5: the growth inhibition rate is greater than 85%)	5 (Level 5: the growth inhibition rate is greater than 85%)	5 (Level 5: the growth inhibition rate is greater than 85%)	5 (Level 5: the growth inhibition rate is greater than 85%)	5 (Level 5: the growth inhibition rate is greater than 85%)
COC(=O)C(NC(=O)OC(C)(C)C)OC(=O)C(C)Oc1nc(F)c(Cl)c(N)c1Cl (stereo not drawn) [Compound 2-372]	5 (Level 5: the growth inhibition rate is greater than 85%)	5 (Level 5: the growth inhibition rate is greater than 85%)	5 (Level 5: the growth inhibition rate is greater than 85%)	5 (Level 5: the growth inhibition rate is greater than 85%)	5 (Level 5: the growth inhibition rate is greater than 85%)
CCC(C)CSC(=O)[C@@H](C)Oc1nc(F)c(Cl)c(N)c1Cl (stereo partly drawn) [Compound 2-88]	5 (Level 5: the growth inhibition rate is greater than 85%)	5 (Level 5: the growth inhibition rate is greater than 85%)	5 (Level 5: the growth inhibition rate is greater than 85%)	5 (Level 5: the growth inhibition rate is greater than 85%)	5 (Level 5: the growth inhibition rate is greater than 85%)
C#CCSC(=O)C(C)Oc1nc(F)c(Cl)c(N)c1Cl (stereo not drawn) [Compound 2-274]	5 (Level 5: the growth inhibition rate is greater than 85%)	5 (Level 5: the growth inhibition rate is greater than 85%)	5 (Level 5: the growth inhibition rate is greater than 85%)	5 (Level 5: the growth inhibition rate is greater than 85%)	5 (Level 5: the growth inhibition rate is greater than 85%)
C[C@@H](Oc1nc(F)c(Cl)c(N)c1Cl)C(=O)Sc1cccn1C [Compound 2-368]	5 (Level 5: the growth inhibition rate is greater than 85%)	5 (Level 5: the growth inhibition rate is greater than 85%)	5 (Level 5: the growth inhibition rate is greater than 85%)	5 (Level 5: the growth inhibition rate is greater than 85%)	5 (Level 5: the growth inhibition rate is greater than 85%)
C[C@@H](Oc1nc(F)c(Cl)c(N)c1Cl)C(=O)OCc1ccncc1 [Compound 2-344]	5 (Level 5: the growth inhibition rate is greater than 85%)	5 (Level 5: the growth inhibition rate is greater than 85%)	5 (Level 5: the growth inhibition rate is greater than 85%)	5 (Level 5: the growth inhibition rate is greater than 85%)	5 (Level 5: the growth inhibition rate is greater than 85%)
CCCCCCCCCSC(=O)[C@@H](C)Oc1nc(F)c(Cl)c(N)c1Cl [Compound 2-176]	5 (Level 5: the growth inhibition rate is greater than 85%)	5 (Level 5: the growth inhibition rate is greater than 85%)	5 (Level 5: the growth inhibition rate is greater than 85%)	5 (Level 5: the growth inhibition rate is greater than 85%)	5 (Level 5: the growth inhibition rate is greater than 85%)
CCCCCCC(C)SC(=O)[C@@H](C)Oc1nc(F)c(Cl)c(N)c1Cl (stereo partly drawn) [Compound 2-164]	5 (Level 5: the growth inhibition rate is greater than 85%)	5 (Level 5: the growth inhibition rate is greater than 85%)	5 (Level 5: the growth inhibition rate is greater than 85%)	5 (Level 5: the growth inhibition rate is greater than 85%)	5 (Level 5: the growth inhibition rate is greater than 85%)
CC(N)CN.CC(Oc1nc(F)c(Cl)c(N)c1Cl)C(=O)S (stereo not drawn) [Compound 2-17]	5 (Level 5: the growth inhibition rate is greater than 85%)	5 (Level 5: the growth inhibition rate is greater than 85%)	5 (Level 5: the growth inhibition rate is greater than 85%)	5 (Level 5: the growth inhibition rate is greater than 85%)	5 (Level 5: the growth inhibition rate is greater than 85%)
CC(Oc1nc(F)c(Cl)c(N)c1Cl)C(=O)SCc1cccc(Cl)c1 (stereo not drawn) [Compound 2-317]	5 (Level 5: the growth inhibition rate is greater than 85%)	5 (Level 5: the growth inhibition rate is greater than 85%)	5 (Level 5: the growth inhibition rate is greater than 85%)	5 (Level 5: the growth inhibition rate is greater than 85%)	5 (Level 5: the growth inhibition rate is greater than 85%)
